{"source": "patent US11766411B2", "about": "“Use of cannabinoids in the treatment of epilepsy” (GW Research Limited, priority 2014, dated 2023)", "type_in_all_cases": "in vivo, human", "key": {"[1]": {"test_system": "children and young adults with severe, childhood onset treatment-resistant epilepsy (TRE)", "assay": "Expanded access compassionate use program of highly purified CBD extract added to baseline AED regimen; seizure diaries", "experimental": "(§1) Twenty-seven children and young adults with severe, childhood onset treatment-resistant epilepsy (TRE) were tested with a highly purified extract of cannabidiol (CBD) obtained from a cannabis plant. The participants in the study were part of an expanded access compassionate use program for CBD.\n(§2) All patients entered a baseline period of 4 weeks when parents/caregivers kept prospective seizure diaries, noting all countable motor seizure types.\n(§3) The patients then received a highly purified CBD extract (greater than 98% CBD w/w) in sesame oil, of known and constant composition, at a dose of 5 mg/kg/day in addition to their baseline anti-epileptic drug (AED) regimen.\n(§4) Laboratory testing for hematologic, liver, kidney function, and concomitant AED levels was performed at baseline, and after 4, 8 and 12 weeks of CBD therapy."}, "[2]": {"test_system": "children and young adults with treatment-resistant Dravet syndrome", "assay": "Expanded access compassionate use program, Dravet syndrome sub-group", "experimental": "as §1, §2, §3, §4\nNine children and young adults with treatment-resistant Dravet syndrome were part of an expanded access compassionate use program for highly purified CBD extract as described in Example 1."}, "[3]": {"test_system": "children and young adults with treatment-resistant myoclonic absence seizures", "assay": "Expanded access compassionate use program, myoclonic absence seizures sub-group", "experimental": "as §1, §2, §3, §4\nFour children and young adults with treatment-resistant myoclonic absence seizures were part of an expanded access compassionate use program for highly purified CBD extract as described in Example 1."}, "[4]": {"test_system": "patients with FIRES", "assay": "Expanded access program, febrile infection related epilepsy syndrome (FIRES) patients", "set-up": "Change from Baseline: unit not given here", "details": "for % Change from Baseline / Change from Baseline / Frequency (per month) / Responder (>=50% Reduction) / Responder (>=70% Reduction) / Responder (>=90% Reduction) / Seizure Free: total seizures", "experimental": "Three patients with FIRES, with an age range of from 4 to 15 years, were treated with CBD under an expanded access program as described previously in Example 1.\nSafety laboratory studies, physical/neurological exams, 24 hour video/EEG and seizure types and frequencies were assessed at baseline and one month after starting CBD.\nA highly purified extract of CBD as an oral solution in sesame oil was used at a concentration of 25 mg/mL.\nTreatment was initiated at a dose of 10 mg/kg/day given in two divided doses, increasing by 5 mg/kg/day every 3 days.\nFollowing seizure improvement an average of 2 AEDs were weaned."}, "[5]": {"details": "27 subjects, 3-month treatment period"}, "[6]": {"details": "All patients (excluding Dravet, MAS and FIRES) (n = 13), after 12 weeks of treatment"}, "[7]": {"details": "All patients excluding Dravet patients (n = 18), after 3 months"}, "[8]": {"details": "All patients excluding MAS patients (n = 23), after 3 months"}, "[9]": {"details": "co-treatment of CBD with clobazam"}, "[10]": {"details": "9 Dravet subjects, 3-month treatment period"}, "[11]": {"details": "Dravet patients (n = 9), after 3 months of therapy"}, "[12]": {"details": "4 MAS subjects, 3-month treatment period"}, "[13]": {"details": "MAS patients (n = 4), after 3 months of therapy"}, "[14]": {"details": "FIRES patients (n = 3), after 12 weeks of treatment"}}}
{"smiles": "C=C(C)[C@@H]1CCC(C)=C[C@H]1c1c(O)cc(CCCCC)cc1O", "note": "[CBD, Cannabidiol]", "values": [{"measurement": "Common adverse events", "setting": "[1]; [5]", "result": "somnolence, fatigue, decreased appetite, increased appetite and diarrhoea"}, {"measurement": "adverse events", "setting": "[1]; [5]", "result": "mild and well tolerated"}, {"measurement": "subjects who withdrew during the treatment period", "setting": "[1]; [5]", "result": "None"}, {"measurement": "Responder rate (>50% reduction) [%]", "setting": "[1]; [6]", "result": 38, "unit": "%"}, {"measurement": "Responder rate (>50% reduction), number of patients", "setting": "[1]; [6]", "result": 5}, {"measurement": "Responder rate (>70% reduction) [%]", "setting": "[1]; [6]", "result": 31, "unit": "%"}, {"measurement": "Responder rate (>70% reduction), number of patients", "setting": "[1]; [6]", "result": 4}, {"measurement": "Responder rate (>90% reduction) [%]", "setting": "[1]; [6]", "result": 8, "unit": "%"}, {"measurement": "Responder rate (>90% reduction), number of patients", "setting": "[1]; [6]", "result": 1}, {"measurement": "Seizure free, number of patients", "setting": "[1]; [6]", "result": 0}, {"measurement": "Responder rate (>50% reduction) [%]", "setting": "[1]; All patients (n = 27), Month 3", "result": 48, "unit": "%"}, {"measurement": "Responder rate (>50% reduction), number of patients", "setting": "[1]; All patients (n = 27), Month 3", "result": 13}, {"measurement": "Responder rate (>70% reduction) [%]", "setting": "[1]; All patients (n = 27), Month 3", "result": 41, "unit": "%"}, {"measurement": "Responder rate (>70% reduction), number of patients", "setting": "[1]; All patients (n = 27), Month 3", "result": 11}, {"measurement": "Responder rate (>90% reduction) [%]", "setting": "[1]; All patients (n = 27), Month 3", "result": 22, "unit": "%"}, {"measurement": "Responder rate (>90% reduction), number of patients", "setting": "[1]; All patients (n = 27), Month 3", "result": 6}, {"measurement": "Seizure free [%]", "setting": "[1]; All patients (n = 27), Month 3", "result": 7, "unit": "%"}, {"measurement": "Responder rate (>50% reduction) [%]", "setting": "[1]; [7]", "result": 44, "unit": "%"}, {"measurement": "Responder rate (>50% reduction), number of patients", "setting": "[1]; [7]", "result": 8}, {"measurement": "Responder rate (>70% reduction) [%]", "setting": "[1]; [7]", "result": 39, "unit": "%"}, {"measurement": "Responder rate (>70% reduction), number of patients", "setting": "[1]; [7]", "result": 7}, {"measurement": "Responder rate (>90% reduction) [%]", "setting": "[1]; [7]", "result": 17, "unit": "%"}, {"measurement": "Responder rate (>90% reduction), number of patients", "setting": "[1]; [7]", "result": 3}, {"measurement": "Seizure free, number of patients", "setting": "[1]; [7]", "result": 0}, {"measurement": "Responder rate (>50% reduction) [%]", "setting": "[1]; [8]", "result": 48, "unit": "%"}, {"measurement": "Responder rate (>50% reduction), number of patients", "setting": "[1]; [8]", "result": 11}, {"measurement": "Responder rate (>70% reduction) [%]", "setting": "[1]; [8]", "result": 39, "unit": "%"}, {"measurement": "Responder rate (>70% reduction), number of patients", "setting": "[1]; [8]", "result": 9}, {"measurement": "Responder rate (>90% reduction) [%]", "setting": "[1]; [8]", "result": 22, "unit": "%"}, {"measurement": "Responder rate (>90% reduction), number of patients", "setting": "[1]; [8]", "result": 5}, {"measurement": "Seizure free [%]", "setting": "[1]; [8]", "result": 9, "unit": "%"}, {"measurement": "Seizure free, number of patients", "setting": "[1]; [8]", "result": 2}, {"measurement": "odds ratio (OR) for positive treatment response (greater than 50% responder rate), convulsive seizures", "setting": "[1]; [9]", "result": 1.9}, {"measurement": "odds ratio (OR) for positive treatment response (greater than 50% responder rate), total seizure reduction", "setting": "[1]; [9]", "result": 3.3}, {"measurement": "tolerability", "setting": "[1]; doses up to 25 mg/kg/day", "result": "generally well-tolerated"}, {"measurement": "Common adverse events", "setting": "[2]; [10]", "result": "somnolence, fatigue, decreased appetite, increased appetite and diarrhoea"}, {"measurement": "adverse events", "setting": "[2]; [10]", "result": "mild and well tolerated"}, {"measurement": "subjects who withdrew during the treatment period", "setting": "[2]; [10]", "result": "None"}, {"measurement": "Responder rate (>50% reduction) [%]", "setting": "[2]; [11]", "result": 56, "unit": "%"}, {"measurement": "Responder rate (>50% reduction), number of patients", "setting": "[2]; [11]", "result": 5}, {"measurement": "Responder rate (>70% reduction) [%]", "setting": "[2]; [11]", "result": 44, "unit": "%"}, {"measurement": "Responder rate (>70% reduction), number of patients", "setting": "[2]; [11]", "result": 4}, {"measurement": "Responder rate (>90% reduction), number of patients", "setting": "[2]; [11]", "result": 3}, {"measurement": "Seizure free [%]", "setting": "[2]; [11]", "result": 22, "unit": "%"}, {"measurement": "Seizure free, number of patients", "setting": "[2]; [11]", "result": 2}, {"measurement": "Common adverse events", "setting": "[3]; [12]", "result": "somnolence, fatigue, decreased appetite, increased appetite and diarrhoea"}, {"measurement": "adverse events", "setting": "[3]; [12]", "result": "mild and well tolerated"}, {"measurement": "subjects who withdrew during the treatment period", "setting": "[3]; [12]", "result": "None"}, {"measurement": "Responder rate (>50% reduction), number of patients", "setting": "[3]; [13]", "result": 2}, {"measurement": "Responder rate (>70% reduction) [%]", "setting": "[3]; [13]", "result": 50, "unit": "%"}, {"measurement": "Responder rate (>70% reduction), number of patients", "setting": "[3]; [13]", "result": 2}, {"measurement": "Responder rate (>90% reduction) [%]", "setting": "[3]; [13]", "result": 25, "unit": "%"}, {"measurement": "Seizure free, number of patients", "setting": "[3]; [13]", "result": 0}, {"measurement": "functional recovery after a reduction in seizures", "setting": "[4]; FIRES patients", "result": "able to walk and verbalise once more"}, {"measurement": "Responder rate (>50% reduction) [%]", "setting": "[4]; [14]", "result": 67, "unit": "%"}, {"measurement": "Responder rate (>50% reduction), number of patients", "setting": "[4]; [14]", "result": 2}, {"measurement": "Responder rate (>70% reduction) [%]", "setting": "[4]; [14]", "result": 67, "unit": "%"}, {"measurement": "Responder rate (>70% reduction), number of patients", "setting": "[4]; [14]", "result": 2}, {"measurement": "Responder rate (>90% reduction) [%]", "setting": "[4]; [14]", "result": 67, "unit": "%"}, {"measurement": "Responder rate (>90% reduction), number of patients", "setting": "[4]; [14]", "result": 2}, {"measurement": "Seizure free [%]", "setting": "[4]; [14]", "result": 33, "unit": "%"}, {"measurement": "Seizure free, number of patients", "setting": "[4]; [14]", "result": 1}, {"measurement": "seizure freedom over the treatment period", "setting": "[4]; Patient 1, 24 week period", "result": "seizure free after starting treatment for almost all of the treatment period"}, {"measurement": "reduction in seizures", "setting": "[4]; Patient 2, after 4 weeks", "result": 50, "unit": "%"}, {"measurement": "reduction in the number of seizures", "setting": "[4]; Patient 3, week 24", "result": "greater than 90%"}, {"measurement": "improvement in clinical and electrographic seizure burden", "setting": "[4]; in two of the three children with refractory seizures or status epilepticus due to FIRES", "result": "greater than 90%"}, {"measurement": "Follow up laboratory tests (safety studies, concomitant AED levels)", "setting": "[4]; three FIRES patients", "result": "no changes in safety studies or concomitant AED levels"}, {"measurement": "tolerability", "setting": "[4]; three FIRES patients", "result": "very well tolerated"}, {"measurement": "treatment related adverse effects", "setting": "[4]; three FIRES patients", "result": "No treatment related adverse effects"}, {"measurement": "% Change from Baseline", "setting": "[4]; Patient 1, Wk 4", "result": "−100.0", "unit": "%"}, {"measurement": "Change from Baseline", "setting": "[4]; Patient 1, Wk 4", "result": "−4.0"}, {"measurement": "Frequency (per month)", "setting": "[4]; Patient 1, Wk 4", "result": 0.0, "unit": "per month"}, {"measurement": "Responder (>=50% Reduction)", "setting": "[4]; Patient 1, Wk 4", "result": "Yes"}, {"measurement": "Responder (>=70% Reduction)", "setting": "[4]; Patient 1, Wk 4", "result": "Yes"}, {"measurement": "Responder (>=90% Reduction)", "setting": "[4]; Patient 1, Wk 4", "result": "Yes"}, {"measurement": "Seizure Free", "setting": "[4]; Patient 1, Wk 4", "result": "Yes"}, {"measurement": "% Change from Baseline", "setting": "[4]; Patient 1, Wk 8", "result": "−75.0", "unit": "%"}, {"measurement": "Change from Baseline", "setting": "[4]; Patient 1, Wk 8", "result": "−3.0"}, {"measurement": "Frequency (per month)", "setting": "[4]; Patient 1, Wk 8", "result": 1.0, "unit": "per month"}, {"measurement": "Responder (>=50% Reduction)", "setting": "[4]; Patient 1, Wk 8", "result": "Yes"}, {"measurement": "Responder (>=70% Reduction)", "setting": "[4]; Patient 1, Wk 8", "result": "Yes"}, {"measurement": "Responder (>=90% Reduction)", "setting": "[4]; Patient 1, Wk 8", "result": "No"}, {"measurement": "Seizure Free", "setting": "[4]; Patient 1, Wk 8", "result": "No"}, {"measurement": "% Change from Baseline", "setting": "[4]; Patient 1, Wk 12", "result": "−100.0", "unit": "%"}, {"measurement": "Change from Baseline", "setting": "[4]; Patient 1, Wk 12", "result": "−4.0"}]}
